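Results reflect a 48-hour exposure of cells in 96-well plates to compound at five concentrations. TGI is the concentration that stops growth completely.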
Key:
Assay in all cases: NCI tumour cell line growth inhibition, 48 h
DU-145 prostate = system: DU-145 prostate
LOX IMVI melanoma = system: LOX IMVI melanoma
NCI/ADR-RES ovarian = system: NCI/ADR-RES ovarian
MOLT-4 leukemia = system: MOLT-4 leukemia
MCF7 breast = system: MCF7 breast
HT29 colon = system: HT29 colon
SW-620 colon = system: SW-620 colon
HS 578T breast = system: HS 578T breast
EKVX NSCLC = system: EKVX NSCLC
PC-3 prostate = system: PC-3 prostate
MDA-MB-435 = system: MDA-MB-435
OVCAR-4 ovarian = system: OVCAR-4 ovarian
BT-549 breast = system: BT-549 breast
SR leukemia = system: SR leukemia
A549 NSCLC = system: A549 NSCLC
MALME-3M melanoma = system: MALME-3M melanoma
CCRF-CEM leukemia = system: CCRF-CEM leukemia
UACC-62 melanoma = system: UACC-62 melanoma
TK-10 renal = system: TK-10 renal
K-562 leukemia = system: K-562 leukemia
SF-268 CNS = system: SF-268 CNS
MDA-N = system: MDA-N
SF-539 CNS = system: SF-539 CNS
OVCAR-3 ovarian = system: OVCAR-3 ovarian
RPMI-8226 leukemia = system: RPMI-8226 leukemia
SF-295 CNS = system: SF-295 CNS
ACHN renal = system: ACHN renal
NCI-H226 lung = system: NCI-H226 lung
NCI-H522 lung = system: NCI-H522 lung
SNB-75 CNS = system: SNB-75 CNS
SK-OV-3 ovarian = system: SK-OV-3 ovarian
SK-MEL-2 melanoma = system: SK-MEL-2 melanoma
IGROV1 ovarian = system: IGROV1 ovarian
HOP-62 NSCLC = system: HOP-62 NSCLC
RXF 393 renal = system: RXF 393 renal
HCT-116 colon = system: HCT-116 colon
HCT-15 colon = system: HCT-15 colon
CAKI-1 renal = system: CAKI-1 renal
OVCAR-8 ovarian = system: OVCAR-8 ovarian
UO-31 renal = system: UO-31 renal
NCI-H23 lung = system: NCI-H23 lung
T-47D breast = system: T-47D breast
UACC-257 melanoma = system: UACC-257 melanoma
NCI-H460 lung = system: NCI-H460 lung
COLO 205 colon = system: COLO 205 colon
MDA-MB-231 breast = system: MDA-MB-231 breast
SNB-19 CNS = system: SNB-19 CNS
OVCAR-5 ovarian = system: OVCAR-5 ovarian
A498 renal = system: A498 renal
SK-MEL-28 melanoma = system: SK-MEL-28 melanoma
U251 CNS = system: U251 CNS
SK-MEL-5 melanoma = system: SK-MEL-5 melanoma
SN12C renal = system: SN12C renal
HCC-2998 colon = system: HCC-2998 colon
HOP-92 NSCLC = system: HOP-92 NSCLC
KM12 colon = system: KM12 colon
786-0 renal = system: 786-0 renal
M14 melanoma = system: M14 melanoma
HL-60(TB) leukemia = system: HL-60(TB) leukemia

## O=S(=O)(c1ccccc1)C1CC(c2nc3ccccc3[nH]2)=NO1 (configuration not stated)
DU-145 prostate
  TGI: > 100 µM
LOX IMVI melanoma
  TGI: > 100 µM
NCI/ADR-RES ovarian
  TGI: > 100 µM
MOLT-4 leukemia
  TGI: > 100 µM
MCF7 breast
  TGI: > 100 µM
HT29 colon
  TGI: > 100 µM
SW-620 colon
  TGI: > 100 µM
HS 578T breast
  TGI: > 100 µM
EKVX NSCLC
  TGI: > 100 µM
PC-3 prostate
  TGI: > 100 µM
MDA-MB-435
  TGI: > 100 µM
OVCAR-4 ovarian
  TGI: > 100 µM
BT-549 breast
  TGI: > 100 µM
SR leukemia
  TGI: > 100 µM
A549 NSCLC
  TGI: > 100 µM
MALME-3M melanoma
  TGI: > 100 µM
CCRF-CEM leukemia
  TGI: 82.6 µM
UACC-62 melanoma
  TGI: > 100 µM
TK-10 renal
  TGI: > 100 µM
K-562 leukemia
  TGI: > 100 µM
SF-268 CNS
  TGI: > 100 µM
MDA-N
  TGI: > 100 µM
SF-539 CNS
  TGI: > 100 µM
OVCAR-3 ovarian
  TGI: > 100 µM
RPMI-8226 leukemia
  TGI: > 100 µM
SF-295 CNS
  TGI: > 100 µM
ACHN renal
  TGI: > 100 µM
NCI-H226 lung
  TGI: > 100 µM
NCI-H522 lung
  TGI: > 100 µM
SNB-75 CNS
  TGI: > 100 µM
SK-OV-3 ovarian
  TGI: > 100 µM
SK-MEL-2 melanoma
  TGI: > 100 µM
IGROV1 ovarian
  TGI: > 100 µM
HOP-62 NSCLC
  TGI: > 100 µM
RXF 393 renal
  TGI: > 100 µM
HCT-116 colon
  TGI: > 100 µM
HCT-15 colon
  TGI: > 100 µM
CAKI-1 renal
  TGI: > 100 µM
OVCAR-8 ovarian
  TGI: > 100 µM
UO-31 renal
  TGI: > 100 µM
NCI-H23 lung
  TGI: > 100 µM
T-47D breast
  TGI: > 100 µM
UACC-257 melanoma
  TGI: > 100 µM
NCI-H460 lung
  TGI: > 100 µM
COLO 205 colon
  TGI: > 100 µM
MDA-MB-231 breast
  TGI: > 100 µM
SNB-19 CNS
  TGI: > 100 µM
OVCAR-5 ovarian
  TGI: > 100 µM
A498 renal
  TGI: > 100 µM
SK-MEL-28 melanoma
  TGI: > 100 µM
U251 CNS
  TGI: > 100 µM
SK-MEL-5 melanoma
  TGI: > 100 µM
SN12C renal
  TGI: > 100 µM
HCC-2998 colon
  TGI: > 100 µM
HOP-92 NSCLC
  TGI: > 100 µM

## COC(=O)c1c(O)ccc2c1c1c(n2CCc2ccc(OC)c(OC)c2)C(=O)c2ccccc2C1=O
DU-145 prostate
  TGI: 29.5 µM
NCI/ADR-RES ovarian
  TGI: 31.7 µM
KM12 colon
  TGI: 25.6 µM
MOLT-4 leukemia
  TGI: 65.8 µM
MCF7 breast
  TGI: 45.2 µM
HT29 colon
  TGI: 10.5 µM
HS 578T breast
  TGI: 37.2 µM
EKVX NSCLC
  TGI: 40.8 µM
PC-3 prostate
  TGI: 35.9 µM
MDA-MB-435
  TGI: 29.2 µM
OVCAR-4 ovarian
  TGI: 35.6 µM
BT-549 breast
  TGI: 27.8 µM
SR leukemia
  TGI: 51.3 µM
A549 NSCLC
  TGI: 47.2 µM
MALME-3M melanoma
  TGI: 29.2 µM
CCRF-CEM leukemia
  TGI: 45.2 µM
UACC-62 melanoma
  TGI: 32.9 µM
786-0 renal
  TGI: 32 µM
M14 melanoma
  TGI: 31 µM
TK-10 renal
  TGI: 57.1 µM
K-562 leukemia
  TGI: > 100 µM
HL-60(TB) leukemia
  TGI: 59 µM
SF-268 CNS
  TGI: 41 µM
MDA-N
  TGI: 25.5 µM
SF-539 CNS
  TGI: 28.1 µM
OVCAR-3 ovarian
  TGI: 40.6 µM
RPMI-8226 leukemia
  TGI: 28 µM
SF-295 CNS
  TGI: 38 µM
ACHN renal
  TGI: 35.9 µM
NCI-H226 lung
  TGI: 50.3 µM
NCI-H522 lung
  TGI: 14 µM
SK-OV-3 ovarian
  TGI: 38.6 µM
SK-MEL-2 melanoma
  TGI: 32.8 µM
IGROV1 ovarian
  TGI: 29.9 µM
HOP-62 NSCLC
  TGI: 32.9 µM
RXF 393 renal
  TGI: 39.5 µM
HCT-116 colon
  TGI: 26.7 µM
HCT-15 colon
  TGI: 29.3 µM
CAKI-1 renal
  TGI: 38.3 µM
OVCAR-8 ovarian
  TGI: 32.6 µM
UO-31 renal
  TGI: 34.6 µM
NCI-H23 lung
  TGI: 31.5 µM
T-47D breast
  TGI: 31.9 µM
UACC-257 melanoma
  TGI: 35.8 µM
NCI-H460 lung
  TGI: 19.5 µM
COLO 205 colon
  TGI: 11.1 µM
MDA-MB-231 breast
  TGI: 52.3 µM
SNB-19 CNS
  TGI: > 100 µM
OVCAR-5 ovarian
  TGI: 34.1 µM
A498 renal
  TGI: 32.9 µM
SK-MEL-28 melanoma
  TGI: 24.8 µM
U251 CNS
  TGI: 43.2 µM
SK-MEL-5 melanoma
  TGI: 23.9 µM
SN12C renal
  TGI: 50.9 µM
HCC-2998 colon
  TGI: 15.7 µM
HOP-92 NSCLC
  TGI: 43.6 µM

## Fc1cc2nc3n(c2cc1F)C(c1c(F)cccc1F)SC3 (configuration not stated)
DU-145 prostate
  TGI: > 100 µM
LOX IMVI melanoma
  TGI: > 100 µM
NCI/ADR-RES ovarian
  TGI: > 100 µM
KM12 colon
  TGI: > 100 µM
MOLT-4 leukemia
  TGI: > 100 µM
MCF7 breast
  TGI: > 100 µM
HT29 colon
  TGI: > 100 µM
SW-620 colon
  TGI: > 100 µM
HS 578T breast
  TGI: > 100 µM
PC-3 prostate
  TGI: > 100 µM
MDA-MB-435
  TGI: > 100 µM
OVCAR-4 ovarian
  TGI: > 100 µM
BT-549 breast
  TGI: > 100 µM
SR leukemia
  TGI: > 100 µM
A549 NSCLC
  TGI: > 100 µM
MALME-3M melanoma
  TGI: > 100 µM
UACC-62 melanoma
  TGI: > 100 µM
786-0 renal
  TGI: 80.6 µM
M14 melanoma
  TGI: 81.5 µM
TK-10 renal
  TGI: > 100 µM
HL-60(TB) leukemia
  TGI: 51.2 µM
SF-268 CNS
  TGI: > 100 µM
MDA-N
  TGI: > 100 µM
SF-539 CNS
  TGI: > 100 µM
OVCAR-3 ovarian
  TGI: > 100 µM
RPMI-8226 leukemia
  TGI: > 100 µM
SF-295 CNS
  TGI: > 100 µM
ACHN renal
  TGI: > 100 µM
NCI-H226 lung
  TGI: > 100 µM
NCI-H522 lung
  TGI: > 100 µM
SNB-75 CNS
  TGI: > 100 µM
SK-OV-3 ovarian
  TGI: > 100 µM
SK-MEL-2 melanoma
  TGI: > 100 µM
IGROV1 ovarian
  TGI: > 100 µM
HOP-62 NSCLC
  TGI: > 100 µM
RXF 393 renal
  TGI: > 100 µM
HCT-116 colon
  TGI: 54.1 µM
HCT-15 colon
  TGI: > 100 µM
CAKI-1 renal
  TGI: > 100 µM
OVCAR-8 ovarian
  TGI: > 100 µM
UO-31 renal
  TGI: > 100 µM
NCI-H23 lung
  TGI: > 100 µM
T-47D breast
  TGI: > 100 µM
UACC-257 melanoma
  TGI: > 100 µM
NCI-H460 lung
  TGI: > 100 µM
COLO 205 colon
  TGI: > 100 µM
MDA-MB-231 breast
  TGI: > 100 µM
SNB-19 CNS
  TGI: > 100 µM
OVCAR-5 ovarian
  TGI: > 100 µM
A498 renal
  TGI: 98.3 µM
SK-MEL-28 melanoma
  TGI: > 100 µM
U251 CNS
  TGI: > 100 µM
SK-MEL-5 melanoma
  TGI: 34.6 µM
SN12C renal
  TGI: > 100 µM
HCC-2998 colon
  TGI: > 100 µM
HOP-92 NSCLC
  TGI: > 100 µM
